Here are results for 37 compounds from patent US7183320B2, “Benzoylsulfonamides and sulfonylbenzamidines for use as antitumour agents” (Eli Lilly and Company, priority 2002, dated 2007).

Data set [1] deals with HCT116 colon carcinoma cells. Nature of the data set: HCT116 colon carcinoma cell growth inhibition (WST-1, 72 hr). In kind it is cell-based, human. The protocol: HCT116 Colon Carcinoma Cell Growth Inhibition
HCT116 colon carcinoma cells were grown monolayer culture in RPMI 1640 medium supplemented with 10% fetal bovine serum and 1% penicillin-streptomycin (GibcoBRL, Grand Island, N.Y.). HCT116 cells in exponential growth phase were exposed to various concentrations of the test compounds at 37° C. for 72 hr in 5% carbon dioxide/air. After exposure to the agent, the cells were washed with 0.9% phosphate buffered saline. Growth inhibition was determined using WST-1 cell proliferation reagent as described above. The results are expressed as the growth fraction of treated cells compared with control cultures. Representative compounds of the present invention were tested for efficacy against the human colon HCT116 tumor cells.

The mark [2] stands for this setting: Homo sapiens, HCT-116, 72 hr exposure.

What is called IC50 is the concentration that gives 50% inhibition. The term melting point denotes the temperature of the solid-liquid transition.

With `Cc1ccc(S(=O)(=O)NC(=O)c2ccc(C)cc2C(F)(F)F)cc1` [Example 79, N-[2-trifluoromethyl-4-methylbenzoyl]-4-methylphenyl-sulfonamide], in data set [1] (setting [2]), the IC50 came out at 5.2 µM.
`O=C(NS(=O)(=O)c1ccc(Cl)c(Cl)c1)c1ccc(Cl)cc1Cl` [Example 92, N-[2,4-dichlorobenzoyl]-3,4-dichlorophenylsulfonamide] displayed an IC50 in data set [1] (setting [2]) of 17.4 µM.
Regarding `Cc1cccc(S(=O)(=O)NC(=O)c2ccc(Br)cc2C)c1` [Example 37, N-[2-methyl-4-bromobenzoyl]-3-methylphenylsulfonamide], the IC50 in data set [1] (setting [2]) came out at 15.5 µM.
For the compound `COc1cc(C)ccc1S(=O)(=O)NC(=O)c1ccc(Cl)cc1C` [Example 44, N-[2-methyl-4-chlorobenzoyl]-2-methoxy-4-methylphenylsulfonamide], the IC50 in data set [1] (setting [2]) was 18.7 µM.
The compound `Cc1ccc(S(=O)(=O)NC(=O)c2ccc(Cl)cc2C)cc1Cl` [Example 45, N-[2-methyl-4-chlorobenzoyl]-3-chloro-4-methylphenylsulfonamide] returned a half-inhibitory concentration (IC50) in data set [1] (setting [2]) of 20.7 µM.
On the same count and under the same terms, in the case of `Cc1cccc(C(=O)NS(=O)(=O)c2ccc(Cl)cc2)c1Cl` [Example 102, N-[2-chloro-3-methylbenzoyl]-4-chlorophenylsulfonamide] it was 6.3 µM; in that of `COc1ccc(S(=O)(=O)NC(=O)c2ccc(C(F)(F)F)cc2C(F)(F)F)cc1` [Example 47, N-[2,4-bis-trifluoromethylbenzoyl]-4-methoxyphenylsulfonamide], 8.7 µM; in that of `O=C(NS(=O)(=O)c1ccc(Br)cc1)c1ccc(Cl)cc1Cl` [Example 94, N-[2,4-dichlorobenzoyl]-4-bromophenylsulfonamide], 3.6 µM.
`Cc1ccc(C(=O)NS(=O)(=O)c2ccc(F)c(Cl)c2)c(Cl)c1` [Example 59, N-[2-chloro-4-methylbenzoyl]-3-chloro-4-fluorophenyl-sulfonamide] returned an IC50 in data set [1] (setting [2]) of 15 µM.
Compound `CS(=O)(=O)Oc1ccc(S(=O)(=O)NC(=O)c2ccc(Cl)cc2Cl)cc1` [Example 95, N-[2,4-dichlorobenzoyl]-4-methylsulfonyloxyphenyl-sulfonamide] showed an IC50 in data set [1] (setting [2]) of 4.3 µM.
The compound `CC(C)c1ccc(S(=O)(=O)NC(=O)c2ccc(Br)cc2Cl)cc1` [Example 64, N-[2-chloro-4-bromobenzoyl]-4-isopropylphenyl-sulfonamide] had an IC50 in data set [1] (setting [2]) of 18.2 µM.
`Cc1cc(Cl)ccc1C(=O)NS(=O)(=O)c1ccccc1` [Example 60, N-[2-methyl-4-chlorobenzoyl]-phenylsulfonamide] showed an IC50 in data set [1] (setting [2]) of 6.6 µM.
`Cc1cc(Br)ccc1C(=O)NS(=O)(=O)c1ccc(F)c(Cl)c1` [Example 35, N-[2-methyl-4-bromobenzoyl]-3-chloro-4-fluorophenylsulfonamide] came in with an IC50 in data set [1] (setting [2]) of 17 µM.
As to `O=C(NS(=O)(=O)c1ccc(I)cc1)c1ccc(Br)cc1Br` [Example 38, N-[2,4-dibromobenzoyl]-4-iodophenylsulfonamide], the IC50 in data set [1] (setting [2]) was found to be 13.9 µM.
`CC(C)(C)c1ccc(S(=O)(=O)NC(=O)c2ccc(Br)cc2Br)cc1` [Example 5, N-[2,4-dibromobenzoyl]-4-tert-butylphenylsulfonamide]: the IC50 in data set [1] (setting [2]) turned out to be 3.8 µM.
The same measure, in the same setting: under `O=C(NS(=O)(=O)c1ccc(Cl)cc1)c1ccc(Br)cc1Br` [Example 6, N-[2,4-dibromobenzoyl]-4-chlorophenylsulfonamide] stands 4 µM.
On the same count and under the same terms, under `Cc1cc(Br)ccc1C(=O)NS(=O)(=O)c1ccc(I)cc1` [Example 36, N-[2-methyl-4-bromobenzoyl]-4-iodophenylsulfonamide] stands 28.4 µM; under `O=C(NS(=O)(=O)c1ccc(Cl)cc1)c1ccc(Cl)cc1Cl` [Example 111, N-[2,4-dichlorobenzoyl]-4-chlorophenylsulfonamide], 15 µM.
In the case of `COC(=O)c1ccc(-c2ccc(S(=O)(=O)NC(=O)c3ccc(Cl)cc3Cl)cc2)cc1` [Example 123, N-[2,4-dichlorobenzoyl]-4-(1-methoxycarbonyl-phen-4-yl)phenylsulfonamide], in data set [1] (72 hr exposure), the IC50 is 37.7 µM.
As to `N=C(NS(=O)(=O)c1ccc(F)c(Cl)c1)c1ccc(Cl)cc1` [Example 115, N-[3-chloro-4-fluorophenylsulfonyl]-4-chlorobenzamidine], the IC50 in data set [1] (setting [2]) turned out to be 33.6 µM.
The compound `CC(C)(C)c1ccc(S(=O)(=O)NC(=O)c2ccc(Cl)cc2Cl)cc1` [Example 88, N-[2,4-dichlorobenzoyl]-4-tert-butylphenylsulfonamide] had an IC50 in data set [1] (setting [2]) of 4.8 µM.
Take `O=C(NS(=O)(=O)c1ccc(-c2cccc3cccnc23)cc1)c1ccc(Cl)cc1Cl` [Example 124, N-[2,4-dichlorobenzoyl]-4-quinolin-8-yl-phenylsulfonamide]: the half-inhibitory concentration (IC50) in data set [1] (setting [2]) was 5.6 µM.
In data set [1] (setting [2]), `COc1ccc(S(=O)(=O)NC(=O)c2ccc(Cl)cc2C)cc1` [Example 41, N-[2-methyl-4-chlorobenzoyl]-4-methoxyphenylsulfonamide] had an IC50 of 14.5 µM.
Still for that read-out and setting: under `COc1c(C)cc(S(=O)(=O)NC(=O)c2ccc(Cl)cc2Cl)cc1C` [Example 97, N-[2,4-dichlorobenzoyl]-4-methoxy-3,5-dimethylphenylsulfonamide] stands 7 µM; under `O=C(NS(=O)(=O)c1ccc(F)cc1)c1ccc(Br)cc1Cl` [Example 16, N-[2-chloro-4-bromobenzoyl]-4-fluorophenylsulfonamide], 3.8 µM; under `Cc1cccc(S(=O)(=O)NC(=O)c2ccc(C(F)(F)F)cc2C(F)(F)F)c1` [Example 50, N-[2,4-bis-trifluoromethylbenzoyl]-3-methylphenylsulfonamide], 10.5 µM.
For `CCSc1ccc(S(=O)(=O)NC(=O)c2ccc(Br)cc2C)cc1` [Example 61, N-[2-methyl-4-bromobenzoyl]-4-ethylthiophenyl-sulfonamide], in data set [1] (setting [2]), the IC50 is 14.2 µM.
In turn, `O=C(NS(=O)(=O)c1ccc(C(F)(F)F)cc1)c1ccc(Cl)cc1Cl` [Example 81, N-[2,4-dichlorobenzoyl]-4-trifluoromethyl-phenylsulfonamide] yielded a half-maximal inhibitory concentration (IC50) in data set [1] (setting [2]) of 11.3 µM.
For `Cc1cc(Cl)ccc1C(=O)NS(=O)(=O)c1ccc(I)cc1` [Example 56, N-[2-methyl-4-chlorobenzoyl]-4-iodophenylsulfonamide], the IC50 in data set [1] (setting [2]) amounted to 16.8 µM.
Take `O=C(NS(=O)(=O)c1ccc(Br)cc1)c1ccc([N+](=O)[O-])cc1Cl` [Example 15, N-[2-chloro-4-nitrobenzoyl]-4-bromophenylsulfonamide]: in data set [1] (setting [2]), the IC50 came out at 10.4 µM.
As for `Cc1cc(Cl)ccc1C(=O)NS(=O)(=O)c1ccc(Cl)cc1` [Example 93, N-[2-methyl-4-chlorobenzoyl]-4-chlorophenylsulfonamide], inhibition in data set [1] (setting [2]) was half-maximal at 18.1 µM (IC50).
For `O=C(NS(=O)(=O)c1ccc(F)cc1)c1ccc(C(F)(F)F)cc1C(F)(F)F` [Example 46, N-[2,4-bis-trifluoromethylbenzoyl]-4-fluorophenylsulfonamide], the IC50 in data set [1] (setting [2]) worked out at 4.8 µM.
Take `CSc1ccc(-c2ccc(S(=O)(=O)NC(=O)c3ccc(Cl)cc3Cl)cc2)cc1` [Example 108, N-[2,4-dichlorobenzoyl]-4-(1-methylsulfanylo-phen-4-yl)phenylsulfonamide]: inhibition in data set [1] (72 hr exposure) was half-maximal at 16 µM (IC50).
As to `O=C(NS(=O)(=O)c1ccc(O)cc1)c1ccc(Cl)cc1Cl` [Example 117, N-[2,4-dichlorobenzoyl]-4-hydroxyphenylsulfonamide], the melting point lay in the range of 155 to 157 °C.
Compound `COc1ccc(S(=O)(=O)NC(=O)c2ccc([N+](=O)[O-])cc2Cl)cc1` [Example 20, N-[2-chloro-4-nitrobenzoyl]-4-methoxyphenylsulfonamide] registered an IC50 in data set [1] (setting [2]) of 2.4 µM.
`CC(C)c1ccc(S(=O)(=O)NC(=O)c2ccc(Cl)cc2Br)cc1` [Example 73, N-[2-bromo-4-chlorobenzoyl]-4-isopropylphenyl-sulfonamide] returned an IC50 in data set [1] (setting [2]) of 8.3 µM.
`Cc1cc(Cl)ccc1C(=O)NS(=O)(=O)c1ccc(C(C)(C)C)cc1` [Example 105, N-[2-methyl-4-chlorobenzoyl]-4-tert-butylphenylsulfonamide] came in with an IC50 in data set [1] (setting [2]) of 14.8 µM.
